The values below come from patent US5914314A (priority 1989, dated 1999).

The conditions of data set [1]: Case XXVIII: carcinoma of the ovary, 40 kg; 120-200 mg LASIX intravenously.
The conditions of data set [2]: following intravenous administration; cited from earlier work.
A short description of data set [3]: topical application to scalp, hair growth. The format is in vivo, human. As to conditions: Case XXX: balding patient; topically to scalp. As for the experimental part:
This patient was diagnosed in January, 1990. A gastric resection and colonic replacement of oesophagus (for swallowing) was performed. They had also developed an intraperitoneal tumor. They were given chemotherapy and lost their hair. […] Dr. Falk saw this patient on Jun.
This balding patient applied the product "minoxidil" sold under the trademark "ROGAINE" topically to their scalp.

For another data set, the system named is tumor. To be noted: injected directly into a tumor.
Data set [4] is described as follows: side effects / toxicity in human patients. As to conditions: 10 to 1000 mg/70 kg person. In kind it is in vivo.
In data set [5] the test system is Grafts from ACI strain rats (black) to Lewis Strain rats (white). The data set is described as follows: standard rat skin graft rejection model. The format is in vivo. To be noted: hyaluronic acid added to cyclosporin.

Turning to `NS(=O)(=O)c1cc(C(=O)O)c(NCc2ccco2)cc1Cl` [LASIX, furosemide], the “total volume of urine over 48 hours” value in data set [1] was 2,450 ml. Further, in data set [2], the duration of action result is listed as “about 2 hours” and the onset of diuresis is at most 30 min. With `Nc1cc(N2CCCCC2)nc(N)[n+]1[O-]` [ROGAINE, minoxidil], the hair growth entry in data set [3] is “minimal or little hair growth”. For `CCO` [ethyl alcohol], in the data set on tumor, the “dispersion in tumor, sonographic (ultrasound) assessment” value is reported as “not dispersed throughout the tumor”. On to hyaluronic acid, for which the toxicity entry in data set [4] is “no toxicity”. In data set [5], the “cyclosporin induced graft survival” value was “significantly increased cyclosporin induced graft survival”.
